{"source": "patent US20120196918A1", "about": "“PREVENTING ISLET INFLAMMATION AND DYSFUNCTION AND MAINTAINING PROPER GLUCOSE LEVELS BY CONTROLLING eIF5A AND ITS HYPUSINATION” (priority 2009, published 2012)", "key": {"eIF5A": {"tested_on": "eIF5A", "assay": "eIF5A and eIF5A-Hyp levels in islets isolated from siRNA-injected mice (immunoblot, 3H-spermidine)", "format": "in vivo, mouse", "conditions": "si-eIF5A i.p. for three days", "procedure": "To clarify this, islets were isolated from siRNA-injected mice and their function assessed in vitro. […] In order to further characterize this improvement in islet glucose responsiveness, glucose-stimulated Ca2+ mobilization (GSCa) studies were also performed. GSCa is a measure of islet glucose sensitivity that captures the dynamics of the islet glucose response, which is similar to GSIS (31). The GSCa, as measured by the change in fura-2 AM fluorescence ratio after glucose stimulation, was increased in si-eIF5A-treated islets compared to controls, reflecting the functional improvement seen in GSIS (FIG. 3D). This improved GSCa relative to controls persisted 48 and 72 hours post-isolation (data not shown). […]\nImmunoblot and nitrite and iNOS assays: Whole cell extracts were resolved by electrophoresis on a 4-20% SDS-polyacrylamide gel, followed by immunoblot using anti-eIF5A1, anti-eIF5A2, anti-iNOS, anti-GFP, or anti-actin primary antibodies and fluorophore-labeled secondary antibodies. Immunoblots were visualized using the Li-Cor® Odyssey® system (Li-Cor Biosciences) and quantitated by scanning fluorometry using Odyssey Imaging v. […] Nitrite was quantitated by measuring nitric oxide-derived nitrite from INS-1 cell culture medium using the Griess reagent (Promega) according to the manufacturer's recommendations. iNOS activity was measured using a commercially available kit (Cayman). […]"}, "eIF5A-Hyp": {"tested_on": "eIF5A-Hyp", "assay": "New hypusine formation (3H-spermidine incorporation) in mouse islets", "format": "cell-based", "conditions": "GC7 125 μM overnight", "from_the_text": "(§1) eIF5A1 and eIF5A2 are the only proteins known to contain the unique amino acid hypusine at position 50. Hypusine is formed as a posttranslational modification of residue Lys50 in a reaction requiring spermidine and catalyzed by the sequential actions of the enzymes deoxyhypusine synthase (DHS) and deoxyhypusine hydroxylase (DOHH) (Chen, K Y, and Liu, A Y. Biochemistry and function of hypusine formation on eukaryotic initiation factor 5A. Biol Signals. 1997; 6(3):105-109). […] To further investigate the mechanism of eIF5A-regulated translation of Nos2, studies were performed following overnight incubation of cells with mimosine (an inhibitor of DOHH) and GC7 (an inhibitor of DHS). […] Similar data using GC7 were obtained in primary mouse islets (data not shown) and in human islets (FIGS. 5F and 5G). […]\nMeasurement of hvpusination: Approximately 100 islets or 1×10^6 INS-1 cells per condition were incubated with 1.5 μCi ^3H-spermidine (Perkin Elmer) in the presence of 1 mM aminoguanidine. […] Gels were visualized by fluorography, and bands were quantitated using Kodak Molecular Imaging Software v. […]"}, "Nos2 mRNA": {"tested_on": "Nos2 mRNA", "assay": "Nos2 transcript levels in INS-1 cells (quantitative RT-PCR)", "format": "cell-based, rat", "conditions": "125 μM GC7, cytokines", "from_the_text": "as §1\nQuantitative RT-PCR: Five micrograms of total RNA from islets or INS-1 cells were reverse-transcribed as detailed previously (77). cDNA was subjected to quantitative PCR using SYBR Green-based technology and published primers for mouse Ins1/2 pre-mRNA (78) and QuantiTech® primers (Qiagen) for all other mouse genes. […] All samples were corrected for total input RNA as quantitated by an Experion® (Bio-Rad) bioanalyzer. […]"}}, "data": [{"compound": "5′-AACGGAAUGACUUCCAGCUGA-3′ (siSTABLE modification, further chemistry not given here) [si-eIF5A]", "values": [{"measurement": "reduction of eIF5A in islets", "setting": "eIF5A", "result": "~50", "unit": "%"}]}, {"compound": "NCCCCCCCN=C(N)N", "note": "[GC7]", "values": [{"measurement": "new hypusine formation in mouse islets", "setting": "eIF5A-Hyp", "result": "effectively inhibits new hypusine formation"}, {"measurement": "Nos2 transcript levels", "setting": "Nos2 mRNA", "result": "remained disproportionately elevated"}]}]}
